Measurements as given in article PMC10232832, “ANO1-downregulation induced by schisandrathera D: a novel therapeutic target for the treatment of prostate and oral cancers” (Frontiers in Pharmacology, 2023).

Target: T1, Anoctamin 1 (ANO1) (Homo sapiens, UniProt Q5XXA6)
T1 construct: ANO1 stably expressed in FRT cells
T1 sequence (Q5XXA6 1-986): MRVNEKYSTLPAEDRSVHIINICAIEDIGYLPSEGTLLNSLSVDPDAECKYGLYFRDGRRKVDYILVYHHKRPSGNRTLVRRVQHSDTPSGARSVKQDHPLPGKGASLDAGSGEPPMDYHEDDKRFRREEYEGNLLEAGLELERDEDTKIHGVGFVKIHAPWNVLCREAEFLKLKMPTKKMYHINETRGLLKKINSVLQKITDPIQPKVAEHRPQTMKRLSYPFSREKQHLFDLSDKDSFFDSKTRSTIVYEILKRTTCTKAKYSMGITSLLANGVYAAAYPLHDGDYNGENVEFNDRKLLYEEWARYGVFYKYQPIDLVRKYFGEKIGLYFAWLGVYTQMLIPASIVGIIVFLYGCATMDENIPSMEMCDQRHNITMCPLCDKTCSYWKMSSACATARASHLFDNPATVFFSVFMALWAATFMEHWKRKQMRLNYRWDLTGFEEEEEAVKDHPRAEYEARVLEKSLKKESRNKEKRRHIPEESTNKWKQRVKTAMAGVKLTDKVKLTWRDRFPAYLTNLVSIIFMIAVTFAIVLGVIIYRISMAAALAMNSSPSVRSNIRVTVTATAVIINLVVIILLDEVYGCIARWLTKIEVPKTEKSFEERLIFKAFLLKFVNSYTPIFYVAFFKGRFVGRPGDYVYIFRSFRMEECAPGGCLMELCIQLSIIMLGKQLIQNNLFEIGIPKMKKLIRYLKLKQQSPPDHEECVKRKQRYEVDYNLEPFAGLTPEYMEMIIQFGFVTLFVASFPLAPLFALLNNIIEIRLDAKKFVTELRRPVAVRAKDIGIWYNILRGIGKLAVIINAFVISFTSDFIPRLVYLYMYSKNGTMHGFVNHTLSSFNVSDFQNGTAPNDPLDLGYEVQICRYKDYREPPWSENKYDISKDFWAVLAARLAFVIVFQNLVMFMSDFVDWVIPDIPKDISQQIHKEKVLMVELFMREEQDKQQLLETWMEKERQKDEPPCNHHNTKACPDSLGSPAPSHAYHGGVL
Assay: YFP fluorescence quenching (iodide influx) assay in FRT cells expressing ANO1 and YFP
Format: cell-based

Question: With COc1cc(C[C@@H](C)[C@@H](C)Cc2cc(O)c(OC)c(OC)c2)cc(O)c1OC [compound 11, schisandrathera D] as the compound, how does the IC50 read?
Answer: The IC50 was 5.24 µM.
